How the values were obtained:
[1] = tested on: bloodstream form T. brucei (strain 427); assay: Trypanocidal assay, growth inhibition of cultured bloodstream-form T. brucei; format: cell-based, Trypanosoma brucei; details: for times higher activity than C-methyl analogue 7c / times higher activity than the parent 7a: free base form
[2] = tested on: Bloodstream-form T. brucei; details: cited from earlier work
[3] = tested on: procyclic (insect form) T. brucei; assay: Activity against cultured procyclic; format: cell-based, Trypanosoma brucei
[4] = tested on: T. cruzi epimastigotes (CL Brener clone); assay: Growth inhibition of T. cruzi epimastigotes; format: cell-based, Trypanosoma cruzi; details: free base

**Q.** With `C[C@@H]1NC2(CCCCCCC2)C(=O)N(CC(=O)NO)C1=O` [9c] as the compound, how does the “fold more potent against T. brucei than 9a” value ([1]; free base, bloodstream form) read?
**A.** Its value is 2.4 fold.

**Q.** With `O=C(CN1C(=O)[C@H](Cc2ccccc2)NC2(CCCCCCC2)C1=O)NO` [9d] as the compound, how does the “fold more potent against T. brucei than 9a” value ([1]; free base, bloodstream form) read?
**A.** Its value is 10 fold.

**Q.** And the “times more trypanocidal activity than C-methyl counterpart 9c” value ([1]; free base, bloodstream form)?
**A.** Its value is 4.3 fold.

**Q.** For `CN1CC(=O)N(CC(=O)NO)C(=O)C12CCCCCCC2` [9b], which “fold more potent against T. brucei than 9a” value ([1]; free base, bloodstream form) is on record?
**A.** Its value is 1.9 fold.

**Q.** For `O=C1ON=C2C3CC4CC(C3)CC12C4` [compound 3], which “potency fold greater than amantadine” value ([2]; T. brucei in vitro) is on record?
**A.** The value was “at least 45 fold”.

**Q.** Which “times higher activity than C-methyl analogue 7c” value ([1]; bloodstream form) does the source give for `O=C(CN1C(=O)[C@@H](Cc2ccccc2)NC2(C1=O)C1CC3CC(C1)CC2C3)NO` (stereo partly shown) [7e] here?
**A.** Its value is 8–20 fold.

**Q.** And the “times higher activity than the parent 7a” value ([1]; bloodstream form)?
**A.** Its value is 5.3–13 fold.

**Q.** And the “times more resistant: procyclic versus bloodstream-form T. brucei” value [3]?
**A.** The value was 10–50 fold.

**Q.** Which “times more potent against T. brucei than 10a” value ([1]; free base, bloodstream form) does the source give for `CN1CC(=O)N(CC(=O)NO)C(=O)C12CCCCCC2` [10b] here?
**A.** The value was 6.6 fold.

**Q.** With `CC(N)C12CC3CC(CC(C3)C1)C2` (stereo not shown) [rimantadine] as the compound, how does the IC50 ([2]; read-out: IC50 bloodstream-form T. brucei, in vitro) read?
**A.** Its IC50 is 7 µM.

**Q.** For `O=C(CN1C(=O)CNC2(CCCCCC2)C1=O)NO` [10a], which “fold decrease in activity against T. brucei compared with 7a” value (from here on “fold decrease in activity”) ([1]; free base, bloodstream form) is on record?
**A.** Its value is 21 fold.

**Q.** For `O=C1CNC2(C(=O)N1)C1CC3CC(C1)CC2C3` (stereo not shown) [6a], which “inhibition of parasite growth, preliminary screen” value ([1]; 5 μg mL^–1, bloodstream-form T. brucei) is on record?
**A.** The value was “inactive”.

**Q.** For `O=C(CN1C(=O)C(Cc2ccccc2)NC2(C1=O)C1CC3CC(C1)CC2C3)NO` (stereo not shown) [compound 8], which “times higher activity than C-methyl analogue 7c” value ([1]; bloodstream form) is on record?
**A.** The value was 8–20 fold.

**Q.** What about the “times higher activity than the parent 7a” value ([1]; bloodstream form) of the same compound?
**A.** The value was 5.3–13 fold.

**Q.** What about the “times more resistant: procyclic versus bloodstream-form T. brucei” value [3] of the same compound?
**A.** The value was 10–50 fold.

**Q.** With `O=C(CN1C(=O)[C@H](Cc2ccccc2)NC2(C1=O)C1CC3CC(C1)CC2C3)NO` (stereo partly shown) [7d] as the compound, how does the “fold lower potency of hydrochloride versus free base” value ([1]; bloodstream-form T. brucei) read?
**A.** The value was 6.2 fold.

**Q.** And the “times higher activity than C-methyl analogue 7c” value ([1]; bloodstream form)?
**A.** The value was 8–20 fold.

**Q.** What about the “times higher activity than the parent 7a” value ([1]; bloodstream form) of the same compound?
**A.** Its value is 5.3–13 fold.

**Q.** And the “factor less potent than 7e (R-enantiomer)” value ([1]; tested as hydrochloride salts)?
**A.** Its value is 4.6 fold.

**Q.** And the “factor less potent than 8 (racemic mixture)” value ([1]; tested as hydrochloride salts)?
**A.** The value was 2.3 fold.

**Q.** And the “fold more potent against T. cruzi than 7a” value [4]?
**A.** Its value is 26 fold.

**Q.** What about the “times more resistant: procyclic versus bloodstream-form T. brucei” value [3] of the same compound?
**A.** The value was 10–50 fold.

**Q.** With `O=C(CN1C(=O)CNC2(CCCCCCC2)C1=O)NO` [9a] as the compound, how does the “fold decrease in activity” value ([1]; free base, bloodstream form) read?
**A.** The value was 3.3 fold.

**Q.** Which results are given for `C[C@@H]1NC2(C(=O)N(CC(=O)NO)C1=O)C1CC3CC(C1)CC2C3` (stereo partly shown) [7c]?
**A.** fold lower potency of hydrochloride versus free base ([1]; bloodstream-form T. brucei): 3 fold; fold decrease in activity against T. brucei compared with 7a ([1]; free base, bloodstream form): 1.5 fold

**Q.** With `CN1CC(=O)N(CC(=O)NO)C(=O)C12C1CC3CC(C1)CC2C3` (stereo not shown) [7b] as the compound, how does the “fold lower potency of hydrochloride versus free base” value ([1]; bloodstream-form T. brucei) read?
**A.** Its value is 1.8 fold.

**Q.** And the “fold decrease in activity” value ([1]; free base, bloodstream form)?
**A.** The value was 2.1 fold.

**Q.** What about the “fold more potent against T. cruzi than 7a” value [4] of the same compound?
**A.** The value was 1.5 fold.

— article PMC3140774 (Journal of Medicinal Chemistry, 2011)
